Key:
[1] = system: Cellules de la membrane amniotique humaine; assay: Cell growth inhibition / toxicity, normal cells: human amniotic membrane cells; format: cell-based
[2] = system: cellules de mélanomes humains M3 DAU; assay: Complementary in vitro test, dead cells after four days of growth: melanoma M3 DAU; format: cell-based; settings: untreated 6, 5760 min
Description: (§1) Les tableaux 1 et 2 ci-après donnent le résultat de ces tests qui portent sur trois types de cellules transformées. Les chiffres indiqués représentent le pourcentage d'inhibition de la croissance de cellules traitées par des doses de plus en plus fortes de composé 6a (chlorhydrate) par rapport à celles des mêmes cellules non traitées.

[3] = system: Hepatomes de rat; assay: Cell growth inhibition, transformed cells: rat hepatomas; format: cell-based
Description: as §1

[4] = system: cellules de mélanomes humains M1 DOR; assay: Complementary in vitro test, dead cells after four days of growth: melanoma M1 DOR; format: cell-based; settings: untreated 24, 5760 min
[5] = system: cellules d'ascites de KREBS (carcinome); assay: Survival of mice injected with Krebs ascites cells; format: in vivo, souris swiss; set-up: taux de survie: unit not given here
Description: (§2) Les tests dont les résultats sont donnés ci-dessous ont été réalisés avec des solutions du composé 6a (sous forme de chlorhydrate). Dans ces tests, on a étudié l'activité vis à vis de la croissance tumorale (carcinome et mélanome) et la survie de souris swiss auxquelles ont été injectées des quantités variables de cellules d'ascites de Krebs.
Les résultats des tests ont été obtenus principalement à partir de souris' auxquelles ont été injectées des cellules d'ascites de KREBS (carcinome) dont l'origine a été décrite par G. KLEIN et E. KLEIN Cancer Research 1951-11-466.

[6] = system: cellules de leucémie L1210; assay: Survival of mice inoculated with leukaemia L1210 cells; format: in vivo, souris; settings: 3.10^5 L1210 cells; 6 mg/kg for 7 days
Description: Une étude a aussi été faite sur des souris auxquelles avaient été inoculées 3.10^5 cellules de leucémie L1210.

[7] = system: virus du sarcome de ROUS; assay: Replication of Rous sarcoma virus; format: cell-based
Description: (§3) Le produit est efficace contre la transformation des cellules d'embryon de poulet induite par le virus du sarcome de ROUS.

[8] = system: clone FAZA 967 de l'hépatome de rat REUBER H 35; assay: Toxicity on hepatoma clone FAZA 967 (LDH, GOT, GPT assayed in the medium); format: cell-based
[9] = system: cellules NRK (normales); assay: Growth inhibition in tissue culture, normal NRK cells; format: cell-based; settings: 6a solutions made by the second method (example 2) compared with product of example 1
[10] = system: Cellules d'embryon de poulet; assay: Transformation of chick embryo cells induced by Rous sarcoma virus; format: cell-based
Description: as §3

[11] = Acute toxicity (DL50) in mice; set-up: species or system souris swiss; settings: mouse, in vivo, two independent measurements
Description: as §2
Toxicité aigüe : La DL50 du composé 6a (chlorhydrate) déterminée sur ces souris par deux mesures indépendantes est de 60 mg/kg.

[12] = Stability of solutions; format: physicochemical; settings: concentrated solutions
Description: Il convient de préciser que les solutions concentrées du produit 6a sont instables. Le produit est conservé sous forme de solutions diluées, par exemple le chlorhydrate peut être conservé en solution aqueuse diluée.

[13] = system: Cellules HeLa humaines; assay: Cell growth inhibition, transformed cells: HeLa; format: cell-based
Description: as §1

[14] = system: Cellules de rein de rat NRK B 77; assay: Cell growth inhibition, transformed cells: NRK B 77; format: cell-based
Description: as §1

[15] = system: Cellules d'embryon de poulet; assay: Cell growth inhibition, normal cells: chick embryo cells; format: cell-based
[16] = system: Fibroblastes humains MRC 5; assay: Cell growth inhibition, normal cells: MRC 5 fibroblasts; format: cell-based
[17] = system: mélanome DAU d'origine humaine; assay: In vivo tumour growth: human melanoma DAU in nude mice; set-up: species or system souris nude; souris traitées présentant un retard dans le développement tumoral: unit not given here; settings: 5.10^5 melanoma DAU cells; 2 x 15 mg/kg on day 1, 2 x 6 mg/kg days 2 to 7; versus untreated controls
Description: (§4) Deux types de tumeurs ont été utilisés : • - un carcinome de Lewis (sur souris swiss), • - un mélanome DAU d'origine humaine (sur souris nude).
Les souris ont reçu une injection de 5.10^5 cellules de mélanome DAU Celles traitées ont reçu : • - 2 x 15 mg/kg le premier jour, • - 2 x 6 mg/kg du deuxième au septième jour.

[18] = system: NRK LA31 à 33°; assay: Cell growth inhibition, transformed cells: NRK LA31 at 33°; format: cell-based, rat
Description: as §1

[19] = system: carcinome de Lewis; assay: In vivo tumour growth: Lewis carcinoma in mice; set-up: species or system souris swiss; settings: 3.10^5 Lewis carcinoma cells; daily 6 mg/kg or 12 mg/kg
Description: as §4
Le test est effectué sur des souris auxquelles 3.10^5 cellules de carcinome de Lewis ont été inoculées.

[20] = system: lignées de lymphomes de souris; assay: In vivo activity against mouse lymphoma lines; settings: certain mouse lymphoma lines
[21] = concentration 1,5.10^-3 (unit not given)
[22] = concentration 2.10^-3 (unit not given)
[23] = concentration 3.10^-3 (unit not given)
[24] = concentration 4.10^-3 (unit not given)
[25] = concentration 5.10^-3 (unit not given)

For `CC(C)(N)C#CC=O` [composé 6a], the “% d'inhibition de la croissance cellulaire” value ([1]; 6.10^-4 M) was 0%, the “effet sur la croissance et sur la morphologie des cellules” value ([1]; concentrations de 5.10 et de 10^-4 mole-litre ^-1) was “aucun effet” and the “% de cellules mortes après quatre jours de croissance” value [2, 21] was 24%. For the same compound, the “% de cellules mortes après quatre jours de croissance” value [2, 22] was 47%, the “% de cellules mortes après quatre jours de croissance” value [2, 23] was 92% and the “% de cellules mortes après quatre jours de croissance” value [2, 24] was 98%. For the same compound, the “% de cellules mortes après quatre jours de croissance” value [2, 25] was 98%, the “% d'inhibition de la croissance cellulaire” value ([3]; 2.10^-4 M) was 50% and the “% d'inhibition de la croissance cellulaire” value ([3]; 6.10^-4 M) was 60%. The “% de cellules mortes après quatre jours de croissance” value [4, 21] was 21%, the “% de cellules mortes après quatre jours de croissance” value [4, 22] was 28% and the “% de cellules mortes après quatre jours de croissance” value [4, 23] was 24%. The “% de cellules mortes après quatre jours de croissance” value [4, 24] was 26%, the “% de cellules mortes après quatre jours de croissance” value [4, 25] was 23% and the survie ([5]; 5.10^5 cells inoculated, 6 mg/kg for 7 days) was “provoque un retard dans la mort mais n'augmente pas le taux de survie”. The taux de survie ([5]; 5.10^5 cells inoculated, 6 mg/kg, treatment of 21 days) was at most 90, the survie ([5]; 5.10^5 cells, 2 x 15 mg/kg on day 1 then 2 x 6 mg/kg the 6 following days, compared with 21-day treatment) was “Le même effet” and the survie ([5]; 10 cellules (so in the source), 2 x 15 mg/kg on day 1 then 2 x 6 mg/kg the 6 following days) was “encore suffisants”. For the same compound, the survie ([5]; inoculation of 5.10^6 cells, 2 x 15 mg/kg on day 1 then 2 x 6 mg/kg the 6 following days) was “efficacité est moindre”, the survie ([5]; inoculation of 10 cellules (so in the source), 6 mg/kg daily for 7 days) was “guérison complète jusque 6 mois” and the survie [6] was “le même effet que dans le cas du carcinome”. The réplication du virus [7] was “n'est pas inhibée”, the “toxicité du produit, estimée par dosage dans le milieu des enzymes LDH, GOT et GPT” value [8] was “aucune toxicité” and the “inhibition de la croissance en culture de tissus” value [9] was “activité en tous points comparable à celle observée avec le produit de l'exemple 1”. For the same compound, the “efficacité contre la transformation des cellules induite par le virus du sarcome de ROUS” value [10] was “efficace”, the LD50 [11] was 60 mg/kg and the stabilité des solutions [12] was “instables”. For the same compound, the “% d'inhibition de la croissance cellulaire” value ([13]; 1.10^-4 M) was 18%, the “% d'inhibition de la croissance cellulaire” value ([13]; 2.10^-4 M) was 36% and the “% d'inhibition de la croissance cellulaire” value ([13]; 4.10^-4 M) was 78%. For the same compound, the “% d'inhibition de la croissance cellulaire” value ([13]; 5.10^-5 M) was 0%, the “% d'inhibition de la croissance cellulaire” value ([13]; 6.10^-4 M) was 91% and the “% d'inhibition de la croissance cellulaire” value ([14]; 1.10^-4 M) was 16%. For the same compound, the “% d'inhibition de la croissance cellulaire” value ([14]; 2.10^-4 M) was 31%, the “% d'inhibition de la croissance cellulaire” value ([14]; 4.10^-4 M) was 57% and the “% d'inhibition de la croissance cellulaire” value ([14]; 5.10^-5 M) was 0%. The “inhibition de la croissance en culture de tissus” value ([14]; 6a solutions made by the second method (example 2) compared with product of example 1, NRK-B77 (transformées)) was “activité en tous points comparable à celle observée avec le produit de l'exemple 1”, the “% d'inhibition de la croissance cellulaire” value ([14]; 6.10^-4 M) was 79% and the “% d'inhibition de la croissance cellulaire” value ([15]; 1.10^-4 M) was 0%. The “% d'inhibition de la croissance cellulaire” value ([15]; 2.10^-4 M) was 0%, the “% d'inhibition de la croissance cellulaire” value ([15]; 4.10^-4 M) was 10% and the “% d'inhibition de la croissance cellulaire” value ([15]; 5.10^-5 M) was 0%. The “% d'inhibition de la croissance cellulaire” value ([15]; 6.10^-4 M) was 12%, the “% d'inhibition de la croissance cellulaire” value ([16]; 1.10^-4 M) was 0% and the “% d'inhibition de la croissance cellulaire” value ([16]; 2.10^-4 M) was 0%. For the same compound, the “% d'inhibition de la croissance cellulaire” value ([16]; 4.10^-4 M) was 0%, the “% d'inhibition de la croissance cellulaire” value ([16]; 5.10^-5 M) was 0% and the “% d'inhibition de la croissance cellulaire” value ([16]; 6.10^-4 M) was 18%. For the same compound, the “retard dans le développement tumoral” value [17] was “dizaine”, the “souris traitées présentant un retard dans le développement tumoral” value [17] was 60 and the “% d'inhibition de la croissance cellulaire” value ([18]; 1.10^-4 M) was 0%. The “% d'inhibition de la croissance cellulaire” value ([18]; 2.10^-4 M) was 11%, the “% d'inhibition de la croissance cellulaire” value ([18]; 4.10^-4 M) was 63% and the “% d'inhibition de la croissance cellulaire” value ([18]; 5.10^-5 M) was 0%. For the same compound, the “% d'inhibition de la croissance cellulaire” value ([18]; 6.10^-4 M) was “Mort” and the croissance tumorale [19] was “net ralentissement de la croissance tumorale”.

In the case of `CCOC(C#CC(C)(C)N)OCC` [composé 9a], the activité in vivo [20] is reported as “actif sélectivement”.

— EP0133407A1, “Acetylene derivatives having an enzyme-inhibiting activity, their preparation and their use as medicines” (Etablissement Public dit: CENTRE NATIONAL DE LA RECHERCHE …, priority 1983, dated 1985)
